Results reported in patent publication US10105437B2, “Epitopes related to coeliac disease” (BTG International Limited, priority 2004, dated 2018).
Where no end group is shown, it is not given here.

What was measured:
Format in all cases: cell-based, human
[1] = test system: PBMC from HLA DQ8+DQ2- CD subjects; experiment: Interferon gamma ELISPOT, second round gliadin library in HLA DQ8 subjects; conditions: for subjects with dominant responses to one or both of these peptides: VYIPPYCTIAPFGIFG and/or AMCNVYIPPYCAMAPF; for subjects with dominant responses to one or both of these peptides / subjects with >70% response to maximal gliadin 16mer (dominant): five subjects; for subjects with >70% response to maximal gliadin 16mer (dominant): wheat gluten challenge
Text: (§1) PBMC from two subjects initially challenged were used to screen the first round “Melbourne” wheat gliadin 20mer library. The 20mer sequences identified using PBMC from these two HLA DQ8 CD subjects were dissected further by screening, in five HLA DQ8+DQ2− CD subjects including the two original subjects, a second round library based on reactive 20mers in the 1st round library. The 2nd round library consisted of screening grade overlapping 16mers, and 13mers predicted to correspond to tTG-mediated deamidation products of epitopes with the potential for deamidation of glutamine at position 1 and/or position 9 (consistent with the HLA DQ8 peptide binding motif). In addition, the 1400 glutenin (HMW and LMW) tTG-pretreated 20mers in the “Melbourne” wheat gluten library were also screened in these five subjects.

[2] = test system: PBMC from HLA DQ8+DQ2- CD subjects; experiment: Interferon gamma ELISPOT, glutenin 20mer library in HLA DQ8 subjects; conditions: tTG-pretreated glutenin 20mers sharing the motif or sequence
Text: as §1
Dominant 20mer peptides shared the motifs or had the sequences: PQQQQQQLVQQQ (SEQ ID NO: 1917), QGIFLQPH(LQ)I(AS)QLEV (SEQ ID NO: 1918), QPGQGQQG(HY)Y (SEQ ID NO: 1919), QSRYEAIRAII(FY)S (SEQ ID NO: 1920), RTTTSVPFD (SEQ ID NO: 1921), QPPFWRQQP (SEQ ID NO: 1922), Q(PS)(PS)(FI)(PS) QQQQ (SEQ ID NO: 1923), (QPLR)GYYPTSPQ (SEQ ID NO: 1924) (previously identified HLA DQ8 epitope, van der Wal 2001), QGSYYPGQASPQ (SEQ ID NO: 1925), […] (SEQ ID NO: 1926), and […] (SEQ ID NO: 1927). Glutenin peptides were assessed after pre-treatment with transglutaminase.

[3] = test system: PBMC from HLA-DQ2+ coeliac subjects; experiment: Interferon gamma ELISPOT, third round wheat peptide library; conditions: following deamidation by tTG; 14 subjects; wheat challenge
Description: (§2) IFNγ ELISpot assays (Mabtech, Sweden) were performed in 96-well plates (MAIP S-45, Millipore) in which each well contained 25 mcl of peptide solution and 100 mcl of PBMC (2-8×10^5/well) in RPMI containing 10% heat inactivated human AB serum. After development and drying, IFNγ ELISpot plates were assessed using the MAIP automated ELISpot plate counter. Data was then analysed according to a novel algorithm (Expectation Maximization: EM) to define and quantify interferon-gamma responses to 9mer sequences contained within the peptide library (see FIG. 3 and below). 9mer peptides were then rationalised according to an algorithm that assumes redundancy in T-cell recognition, the “IterativeCluster” algorithm (see FIG. 4 and below), by allowing groups of amino acids with similar chemical properties at any one position in the 9mer, or for glutamate to replace glutamine at any position (assuming deamidation may have occurred).
The third round peptide library consisted of 74 peptides based upon structurally distinct sequences in the second round library found to induce at least 10% of the maximal response to any peptide in any subject. These peptides corresponded to wild-type (non-deamidated) sequences virtually identical to those used in the second round library. The distinct feature of this library was that it consisted of peptides with purity verified by HPLC as >80%, and with sequences confirmed by mass spectroscopy.
Interferon gamma ELSIPOT responses to the 3rd round library peptides following deamidation by tTG were compared in 14 subjects. Once again, sequences including the PQPQLPY motif (SEQ ID NO: 1937) were “dominant” in 9/14 subjects. However PFPQPQQPFPW (SEQ ID NO: 1894) stimulated >70% of maximal response in 1/14 subjects, PFPQQPQQPFPQ (SEQ ID NO: 1895) in 1/14, PQPFLPQLPYPQP (SEQ ID NO: 1896) in 1/14, QPFPQPQQPQQP (SEQ ID NO: 1897) in 4/14 (including 3 subjects in whom PQPQLPY peptides (SEQ ID NO: 1937) were not potent epitopes) SGQGVSQSQQQSQQQ (SEQ ID NO: 1898) in 2/14 (including one in which PQPQLPY peptides (SEQ ID NO: 1937) were not potent), QYEVIRSLVLRTLPNM (SEQ ID NO: 1899) and GLARSQMLQQSICHVG (SEQ ID NO: 1900) each in one (the same) subject in whom PQPQLPY peptides (SEQ ID NO: 1937) were not potent epitopes, RTTTSVPFGVGTGVGA (SEQ ID NO: 1901) in 1/14 subjects and AIHTVIHSIIMQQEQQ (SEQ ID NO: 1902) in 1/14 subjects.

[4] = test system: PBMC from subjects with DQ2+ coeliac disease; experiment: Interferon gamma ELISPOT, high grade avenin peptides after oats challenge; conditions: for subjects in whom peptide was dominant (>70% maximal response) after oats challenge: day 6 PBMC
Description: as §2
High grade avenin peptides were assessed 3 days after completing oats challenge with pure wheat-free oats, 100 g/d for 3 days (“day 6” PBMC interferon gamma ELISPOT responses). These peptides were designed upon peptides previously defined using the screening grade (“first round”) avenin peptide library and on potential deamidation sites. There were 25 peptides (as 16mers) with purity verified by HPLC as >80%, and sequences confirmed by mass spectroscopy.
Interferon gamma ELISPOT responses to the high grade avenin peptides following deamidation by tTG were compared in 18 subjects with DQ2+ coeliac disease.

[5] = after oats challenge, deamidated by tTG, 18 subjects

## (QE)QPTPIQP(QE): HLA DQ8 gliadin epitope motif, Q or E at marked positions (XQPTPIQPX; not fully specified; printed as (QE)QPTPIQP(QE))
[1]
  effect of deamidation of specific glutamine residues on ELISPOT responses: enhanced or permissive to specific glutamine residues being deamidated

## (QPLR)GYYPTSPQ: previously identified HLA DQ8 epitope, van der Wal 2001 [reference compound]
[2]
  dominance among five subjects: dominant in at least one of the five subjects

## AIHTVIHSIIMQQEQQ (Description of Artificial Sequence: Synthetic gluten peptide)
[3]
  subjects in whom peptide stimulated >70% of maximal response (dominant): 1/14

## AMCNVYIPPYCAMAPF (Description of Artificial Sequence: Synthetic gluten peptide) [gliadin 16mer, HLA DQ8]
[1]
  subjects with dominant responses to one or both of these peptides: 4/5
  subjects with >70% response to maximal gliadin 16mer (dominant): 3/5

## EQQFGQNIFSGFSVQL (Description of Artificial Sequence: Synthetic gluten peptide)
[4]; deamidated by tTG, 18 subjects
  subjects in whom peptide was dominant (>70% maximal response) after oats challenge: 11/18

## EQYQPEQQPFMQPL (Description of Artificial Sequence: Synthetic gluten peptide)
[4]; [5]
  subjects with >40% maximal peptide response: 5/18

## GLARSQMLQQSICHVG (Description of Artificial Sequence: Synthetic gluten peptide)
[3]
  subjects in whom peptide stimulated >70% of maximal response (dominant): one

## GYYPTSSLQPEQGQQGYYPT (Description of Artificial Sequence: Synthetic gluten peptide) [glutenin 20mer, HLA DQ8]
[2]
  dominance among five subjects: dominant in at least one of the five subjects

## PFPQPQQPFPW (Description of Artificial Sequence: Synthetic gluten peptide)
[3]
  subjects in whom peptide stimulated >70% of maximal response (dominant): 1/14

## PFPQQPQQPFPQ (Description of Artificial Sequence: Synthetic gluten peptide)
[3]
  subjects in whom peptide stimulated >70% of maximal response (dominant): 1/14

## PQPFLPQLPYPQP (Description of Artificial Sequence: Synthetic gluten peptide)
[3]
  subjects in whom peptide stimulated >70% of maximal response (dominant): 1/14

## PQQQQQQLVQQQ (Description of Artificial Sequence: Synthetic gluten peptide) [motif of dominant glutenin 20mers, HLA DQ8]
[2]
  dominance among five subjects: dominant in at least one of the five subjects

## QGQQLAQGQQGQQPAQVQQG (Description of Artificial Sequence: Synthetic gluten peptide) [glutenin 20mer, HLA DQ8]
[2]
  dominance among five subjects: dominant in at least one of the five subjects

## QGSYYPGQASPQ (Description of Artificial Sequence: Synthetic gluten peptide) [motif of dominant glutenin 20mers, HLA DQ8]
[2]
  dominance among five subjects: dominant in at least one of the five subjects

## QIPEQLRCPAIHSVVQ (Description of Artificial Sequence: Synthetic gluten peptide)
[4]; [5]
  subjects with positive responses: 3/18

## QLRCPAIHSVVQAIIL (Description of Artificial Sequence: Synthetic gluten peptide)
[4]; deamidated by tTG, 18 subjects
  subjects in whom peptide was dominant (>70% maximal response) after oats challenge: 4/18

## QPFPQPQQPQQP (Description of Artificial Sequence: Synthetic gluten peptide)
[3]
  subjects in whom peptide stimulated >70% of maximal response (dominant): 4/14

## QPPFWRQQP (Description of Artificial Sequence: Synthetic gluten peptide) [motif of dominant glutenin 20mers, HLA DQ8]
[2]
  dominance among five subjects: dominant in at least one of the five subjects

## QYEVIRSLVLRTLPNM (Description of Artificial Sequence: Synthetic gluten peptide)
[3]
  subjects in whom peptide stimulated >70% of maximal response (dominant): one

## QYQPYPEQEQPILQQQ (Description of Artificial Sequence: Synthetic gluten peptide)
[4]; deamidated by tTG, 18 subjects
  subjects in whom peptide was dominant (>70% maximal response) after oats challenge: 3/18

## RTTTSVPFD (Description of Artificial Sequence: Synthetic gluten peptide) [motif of dominant glutenin 20mers, HLA DQ8]
[2]
  dominance among five subjects: dominant in at least one of the five subjects

## RTTTSVPFGVGTGVGA (Description of Artificial Sequence: Synthetic gluten peptide)
[3]
  subjects in whom peptide stimulated >70% of maximal response (dominant): 1/14

## SEQYQPYPEQQEPFVQ (Description of Artificial Sequence: Synthetic gluten peptide) [peptide 1490, avenin peptide reported in Arentz-Hansen, PLoS Medicine 2004, reference compound]
[4]; after oats challenge
  subjects with far weaker response: 5
  subjects with strong positive response: one

## SGQGVSQSQQQSQQQ (Description of Artificial Sequence: Synthetic gluten peptide)
[3]
  subjects in whom peptide stimulated >70% of maximal response (dominant): 2/14

## VYIPPYCTIAPFGIFG (Description of Artificial Sequence: Synthetic gluten peptide) [gliadin 16mer, HLA DQ8]
[1]
  subjects with dominant responses to one or both of these peptides: 4/5
  subjects with >70% response to maximal gliadin 16mer (dominant): 3/5
